PMC4391943, “Novel Epigallocatechin-3-Gallate (EGCG) Derivative as a New Therapeutic Strategy for Reducing Neuropathic Pain after Chronic Constriction Nerve Injury in Mice” (PLoS ONE, 2015)

Key:
[1] = system: NMDAR2B; test: Western blot of NMDAR2B in the synaptic plasma membrane fraction of the dorsal horn; assay type: in vivo, mice; conditions: 50 mg/Kg, 56 dpi
Description: Subcellular fractionation was obtained by differential centrifugation as described elsewhere. Briefly, tissue was homogenized in lysis buffer (10 mM Tris-HCl pH 7.5, 1 mM EDTA, 1 mM Na3VO4, 0.25 M sucrose, 2 mM PMSF, 1 μg/μL aprotinin, 1 μg/μL leupeptin, 2 mM sodium orthovanadate). The homogenate was centrifuged at 2,000 × g for 10 min at 4°C to separate the nuclei fraction (P1). The P1 was resuspended in lysis buffer. The resulting supernatant was centrifuged at 10,000×g for 15 min at 4°C to obtain a crude membrane fraction (P2). The P2 was resuspended and incubated in the lysis buffer containing 0.5% Triton X-100 for 15 min, and then centrifuged at 25,000 × g for 20 min to obtain the synaptosomal membrane fraction (P3). Finally, the P3 was resuspended in lysis buffer and centrifuged on a discontinuous sucrose gradient (0.8 M, 1 M and 1.2 M) at 150,000×g for 2 h. Synaptic plasma membrane (SPM) was collected from the 1:1.2 M interface and resuspended in 50 mM HEPES, 2 mM EDTA, 1 mM PMSF, 10 μg/ml aprotinin, 1 μg/ml leupeptin and 2 mM sodium orthovanadate.
(§1) Western blotting was performed as previously described. The following primary antibodies were used: anti-FASN (1:1000, BD Bioscience, San Jose, CA); anti-TNF-α, anti-IL-1β, anti-IL-6 and anti-NFκB (all 1:500, Santa Cruz Biotechnology, Santa Cruz, CA); anti-phosphoNMDAR2B (Tyr1472) (1:2000, Affinity Bioreagents, Golden, CO) and anti-NMDAR2B (1:1000, Chemicon, Temecula, CA). Loading control was performed by reprobing the membranes with anti-actin (1:10,000; MP Biochemicals, Aurora, OH), anti-NeuN (1:1,000; Chemicon) or anti-N-cadherin (1:1000, BD Bioscience). Membranes were incubated with the corresponding horseradish peroxidase-conjugated antibody (1:2,000; Promega, Madison, WI). Immunoreactive bands were visualized using the Western Blotting Luminol Reagent and quantified by a computer-assisted densitometer (Gel-Pro Analyzer, version 4, Media Cybernetics).

[2] = system: NMDAR2B; test: Western blot of phospho-NMDAR2B and total NMDAR2B in the dorsal horn of the spinal cord; assay type: in vivo, mice; conditions: 50 mg/Kg, 56 dpi
Description: (§2) Mice (n = 5 per group) were sacrificed with sodium pentobarbital (90 mg/kg; i.p.) at 14 and 56 dpi and spinal cord segments distal to T12 vertebra were quickly removed and frozen. For total protein extraction, the dorsal horn of the spinal cord was homogenized in modified RIPA buffer (50 mM Tris–HCl pH 7.5, 1% Triton X-100, 0.5% sodium deoxycholate, 0.2% SDS, 100 mM NaCl, 1 mM EDTA, 2 mM PMSF, 1 μg/μL aprotinin, 1 μg/μL leupeptin and 2 mM sodium orthovanadate).
as §1

[3] = system: TNF-α, IL-1β and IL-6; test: Quantitative RT-PCR of cytokine mRNA in the dorsal horn of the spinal cord; assay type: in vivo, mice; conditions: 50 mg/Kg
Description: Total RNA was isolated from dorsal horn of spinal cord segments distal to T12 vertebra of all groups (n = 5 mice per group) using the Total RNA isolation nucleospin RNA II Kit. Purified RNA (600 ng) was reverse transcribed using the StrataScript First Strand cDNA Synthesis System. The cDNA synthesis was performed at 42°C for 60 minutes according to the manufacturer’s instructions. The cDNA was then analyzed by quantitative RT-PCR using the following TaqMan Gene Expression Assays (Applied Biosystems, Foster City, CA): 18S, HS99999901_s1; TNF-α, Mm00443258_m1; IL-1β, Mm00434228_m1; IL-6, Mm00446190_m1. The RT-PCR was performed as previously described. Analysis and quantification was obtained with the comparative quantification analysis program of the Mx-Pro Q-PCR Analysis software version 3.0 (Strategene).

[4] = Serum stability study, human serum; assay type: in vitro ADME; conditions: 37°C, 75% serum, 0.5 mM compound; for half-life at 0.5 mM: human serum (75% final serum content), read-out: half-life (t1/2) (converted)
Description: Peptide stabilities were assayed in diluted serum as previously described. Human serum (Sigma, S7023) or mouse serum (Europa Bioproducts, EQSM-0100) were incubated at 37°C for 10 min. The assay was initiated upon the addition of the test compound solved in PBS to the serum (75% final serum content) for a final compound concentration of 0.5 mM. Then, 500 µL aliquots of the incubations were taken for the following time points: 0, 15, 30, 60, 120 and 240 min. The aliquots were mixed with 750 µL of cold acetonitrile (ACN) and incubated at 4°C for 10 min to precipitate serum proteins. The supernatant was collected for each sample after centrifugation at 39,000 g for 10 min and were immediately analyzed by high performance liquid chromatography-mass spectrometry (HPLC-MS).

[5] = system: FASN; test: Western blot of FASN protein levels in the dorsal horn of the spinal cord; assay type: in vivo, mice; conditions: 50 mg/Kg, 14 and 56 dpi
Description: as §2, §1

[6] = system: CCI-mice; test: Thermal hyperalgesia (plantar heat / Hargreaves test), paw withdrawal latency after chronic constriction injury; assay type: in vivo; conditions: for latency to paw withdrawal to a thermal stimulus: mean ± SEM, n = 5; for time-dependent effect on thermal paw withdrawal latency vs vehicle: 50 mg/Kg i.p., assessed weekly from 7 to 56 dpi, n = 15 (Fig 1)
Description: The chronic constriction injury (CCI) followed the procedure described elsewhere. Animals were anesthetized with sodium pentobarbital (50 mg/kg; i.p.), an incision was made in the right thigh, and the sciatic nerve was exposed. Two loose ligatures with 1 mm apart were then made around the nerve using the 6–0 poly-glycolic acid synthetic absorbable sutures. The incision was closed using 5–0 interrupted nylon sutures. A control group was included with sham surgery where the right sciatic nerve was exposed but not further manipulated.
For dose response studies, EGCG and the two synthetic EGCG derivatives compound 23 and compound 30 were administered by intra-peritoneal injection at 10, 30, 50 and 100 mg/Kg (n = 5 mice/compound/dose), 30 minutes after the CCI. To analyze the time-dependent effect EGCG and the two synthetic EGCG derivatives compound 23 and compound 30 were administered by intra-peritoneal injection at 50 mg/Kg (n = 15 mice/compound), 30 minutes after the CCI. Another set of animals were used to study the effect of 50 mg/kg of EGCG and the two synthetic EGCG derivatives compound 23 and compound 30 at 14 dpi (n = 15 mice/compound). In all cases, the administration was daily repeated during the first week. All compounds were dissolved in DMSO/saline solution (1:9; v/v), used as vehicle group.
To measure changes in thermal sensation we used the plantar heat test (Ugo Basile, Italy) as previously described. Briefly, mice were acclimated 5 days (15 min/day) prior to CCI. At 7, 14, 21, 28, 35, 42, 49 and 56 dpi, mice were enclosed in a clear Plexiglas box. After 15 min, during which the animals were provided with free exploration to habituate to the apparatus, infrared light beam was applied to the plantar surface of the […], and paw withdrawal latency was recorded in seconds. The infrared stimulus application automatically shut off at 30 seconds to avoid tissue damage. Four trials were measured randomly for right […] with at least 2 minutes between each trial.

[7] = 10 mg/Kg i.p. daily first week post-CCI, 7 dpi
[8] = 10 mg/Kg i.p. daily first week post-CCI, 21 dpi
[9] = 30 mg/Kg i.p. daily first week post-CCI, 7 dpi
[10] = 30 mg/Kg i.p. daily first week post-CCI, 21 dpi
[11] = 50 mg/Kg i.p. daily first week post-CCI, 7 dpi
[12] = 50 mg/Kg i.p. daily first week post-CCI, 21 dpi
[13] = 100 mg/Kg i.p. daily first week post-CCI, 7 dpi
[14] = 100 mg/Kg i.p. daily first week post-CCI, 21 dpi

| Compound | protein levels of NMDAR2B in the synaptic plasma membrane (SPM) [1] | phospho-levels of NMDAR2B compared to vehicle group [2] | decrease in mRNA levels of TNF-α, IL-1β and IL-6 compared to vehicle ([3]; 14 dpi) | half-life at 0.5 mM [4] | effect on FASN protein levels [5] | latency to paw withdrawal to a thermal stimulus [6, 7] | latency to paw withdrawal to a thermal stimulus [6, 8] | latency to paw withdrawal to a thermal stimulus [6, 9] | latency to paw withdrawal to a thermal stimulus [6, 10] | latency to paw withdrawal to a thermal stimulus [6, 11] | latency to paw withdrawal to a thermal stimulus [6, 12] | time-dependent effect on thermal paw withdrawal latency vs vehicle [6] | latency to paw withdrawal to a thermal stimulus [6, 13] | latency to paw withdrawal to a thermal stimulus [6, 14] | decrease in mRNA levels of TNF-α, IL-1β and IL-6 compared to vehicle ([3]; 56 dpi) | mRNA levels of IL-6 compared to vehicle ([3]; 56 dpi) | half-life (t1/2) [4] |
| --- | --- | --- | --- | --- | --- | --- | --- | --- | --- | --- | --- | --- | --- | --- | --- | --- | --- |
| O=C(Oc1cccc2c(OC(=O)c3cc(O)c(O)c(O)c3)cccc12)c1cc(O)c(O)c(O)c1 [Compound 23, 1,5-Bis [(3,4,5-trihydroxybenzoyl)oxy] naphthalene] | did not result in changes | did not induce variations | no differences | 1.4 h | no effect | 4.07 ± 0.31 s | 3.89 ± 0.43 s | 4.57 ± 0.29 s | 3.77 ± 0.59 s | 4.38 ± 0.3 s | 3.93 ± 0.24 s | did not detect differences at any time point analyzed | 4.41 ± 0.27 s | 3.71 ± 0.29 s | – | – | – |
| O=C(Oc1ccc(-c2ccc(OC(=O)c3cc(O)c(O)c(O)c3)cc2)cc1)c1cc(O)c(O)c(O)c1 [Compound 30, 4,4′-Bis [(3,4,5-trihydroxybenzoyl)oxy]-1,1′-biphenyl] | specific decrease | specific decrease | ~3 fold | 1.9 h | no effect | 3.71 ± 0.39 s | 4.11 ± 0.51 s | 3.93 ± 0.37 s | 4.33 ± 0.57 s | 4.31 ± 0.3 s | 7.61 ± 0.67 s | augmentation in the paw withdrawal latency from 14 to 56 dpi | 4.79 ± 0.44 s | 6.49 ± 0.53 s | not observed | slight decrease | – |
| epigallocatechin-3-gallate [EGCG] | did not result in changes | did not induce variations | ~3 fold | – | no effect | 3.93 ± 0.33 s | 3.83 ± 0.23 s | 5.01 ± 0.35 s | 4.28 ± 0.45 s | 13.01 ± 1.02 s | 8.58 ± 0.9 s | increase in paw withdrawal latency in CCI-mice treated with EGCG from 7 to 21 dpi | 9.38 ± 0.66 s | 6.15 ± 0.42 s | not observed | – | < 0,1 h |
